According to ChEMBL document CHEMBL3045592, “Studies of O,O-dimethyl α-(2,4-dichlorophenoxyacetoxy)ethylphosphonate (HW02) as a new herbicide. 1. Synthesis and herbicidal activity of HW02 and analogues as novel inhibitors of pyruvate dehydrogenase complex” (J Agric Food Chem, 2011):

What was measured:
Cucumis sativus [1] = experiment: Herbicidal activity against Cucumis sativus Jin 4 (cucumber) assessed as inhibition of stem growth after 3 days; format: functional, organism-based; conditions: Jin 4, 72 h
Medicago sativa [2] = experiment: Post-emergence herbicidal activity against Medicago sativa (alfalfa) assessed as growth inhibition at 1500 ai g/ha after 20 days by green house test; format: functional
Amaranthus retroflexus [3] = experiment: Post-emergence herbicidal activity against Amaranthus retroflexus assessed as growth inhibition at 1500 ai g/ha after 20 days by green house test; format: functional
[4] = tested on: Brassica rapa subsp. oleifera; experiment: Post-emergence herbicidal activity against Brassica rapa subsp. oleifera Si Yue Man assessed as growth inhibition at 1500 ai g/ha after 20 days by green house test; format: functional
Digitaria sanguinalis [5] = experiment: Post-emergence herbicidal activity against Digitaria sanguinalis (hairy crabgrass) assessed as growth inhibition at 1500 ai g/ha after 20 days by green house test; format: functional
Echinochloa crus-galli [6] = experiment: Post-emergence herbicidal activity against Echinochloa crus-galli (barnyard grass) assessed as growth inhibition at 1500 ai g/ha after 20 days by green house test; format: functional
Medicago sativa [7] = experiment: Pre-emergence herbicidal activity against Medicago sativa (alfalfa) assessed as growth inhibition at 1500 ai g/ha after 20 days by green house test; format: functional
Amaranthus retroflexus [8] = experiment: Pre-emergence herbicidal activity against Amaranthus retroflexus assessed as growth inhibition at 1500 ai g/ha after 20 days by green house test; format: functional
[9] = tested on: Brassica rapa subsp. oleifera; experiment: Pre-emergence herbicidal activity against Brassica rapa subsp. oleifera Si Yue Man assessed as growth inhibition at 1500 ai g/ha after 20 days by green house test; format: functional
Digitaria sanguinalis [10] = experiment: Pre-emergence herbicidal activity against Digitaria sanguinalis (hairy crabgrass) assessed as growth inhibition at 1500 ai g/ha after 20 days by green house test; format: functional
Echinochloa crus-galli [11] = experiment: Pre-emergence herbicidal activity against Echinochloa crus-galli (barnyard grass) assessed as growth inhibition at 1500 ai g/ha after 20 days by green house test; format: functional
Cucumis sativus [12] = experiment: Herbicidal activity against Cucumis sativus Jin 4 (cucumber) assessed as inhibition of root growth after 3 days; format: functional, organism-based; conditions: Jin 4, 72 h

## COP(=O)(OC)C(OC(=O)C(C)Oc1ccc(Cl)cc1Cl)c1ccccc1 (centres undefined)
Cucumis sativus [1]
  IC50: 30.1 µM

## COP(=O)(OC)C(OC(=O)COc1ccc(Cl)cc1Cl)c1cccc([N+](=O)[O-])c1 (centres undefined)
Cucumis sativus [1]
  IC50: 5.02 µM
Medicago sativa [2]
  growth inhibition (GI): 90%
Amaranthus retroflexus [3]
  growth inhibition (GI): 90%
[4]
  growth inhibition (GI): 90%
Digitaria sanguinalis [5]
  growth inhibition (GI): <=50%
Echinochloa crus-galli [6]
  growth inhibition (GI): <=50%
Medicago sativa [7]
  growth inhibition (GI): 90%
Amaranthus retroflexus [8]
  growth inhibition (GI): 90%
[9]
  growth inhibition (GI): 90%
Digitaria sanguinalis [10]
  growth inhibition (GI): <=50%
Echinochloa crus-galli [11]
  growth inhibition (GI): 50%
Cucumis sativus [12]
  IC50: 0.0034 µM

## CCOP(=O)(OCC)C(OC(=O)COc1ccc(Cl)cc1Cl)c1ccccc1Cl (centres undefined)
Cucumis sativus [12]
  IC50: 1.49 µM

## COP(=O)(OC)C(OC(=O)COc1cccc(C(F)(F)F)c1)c1cccc([N+](=O)[O-])c1 (centres undefined)
Medicago sativa [2]
  growth inhibition (GI): <=50%
Amaranthus retroflexus [3]
  growth inhibition (GI): <=50%
[4]
  growth inhibition (GI): 50%
Digitaria sanguinalis [5]
  growth inhibition (GI): <=50%
Echinochloa crus-galli [6]
  growth inhibition (GI): 50%
Medicago sativa [7]
  growth inhibition (GI): 50%
Amaranthus retroflexus [8]
  growth inhibition (GI): 50%
[9]
  growth inhibition (GI): 50%
Digitaria sanguinalis [10]
  growth inhibition (GI): <=50%
Echinochloa crus-galli [11]
  growth inhibition (GI): <=50%

## COP(=O)(OC)C(C)OC(=O)COc1ccc(C)cc1 (centres undefined)
Medicago sativa [2]
  growth inhibition (GI): 50%
Amaranthus retroflexus [3]
  growth inhibition (GI): 50%
[4]
  growth inhibition (GI): 50%
Digitaria sanguinalis [5]
  growth inhibition (GI): <=50%
Echinochloa crus-galli [6]
  growth inhibition (GI): 50%
Medicago sativa [7]
  growth inhibition (GI): 75%
Amaranthus retroflexus [8]
  growth inhibition (GI): 75%
[9]
  growth inhibition (GI): 75%
Digitaria sanguinalis [10]
  growth inhibition (GI): <=50%
Echinochloa crus-galli [11]
  growth inhibition (GI): 50%
